In patent US20220380347A1, “INHIBITORS OF CYSTEINE PROTEASES AND METHODS OF USE THEREOF” (Pardes Biosciences, Inc., priority 2020, published 2022) one finds EC50 and IC50 data, which are given here for 25 compounds.

Experiment [1] addresses 229E Mpro (Human coronavirus 229E, UniProt P0C6X1). As to the kind of experiment: 229E Mpro enzymatic assay (standard methods, SARS-CoV2 Mpro assay given as exemplary). Format: biochemical, human coronavirus (HCov) 229E. In a few lines:
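Run by standard methods, with the SARS-CoV-2 Mpro protocol given as the model: E. coli-expressed C-His6 protease at 25 nM and substrate at 25 μM (Km 13.5 μM). Buffer pH 7.3 with 5 mM TCEP and 0.1% BSA; % inhibition versus controls fitted to variable-slope log(inhibitor)-response for IC50.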

In experiment [2] the test system is HCoV 229E. Description: HCoV 229E cytopathic effect (CPE) assay, CellTiter Glo. Format: cell-based, human coronavirus (HCov) 229E. The settings on record: protection of virus-induced CPE. Here is the method: Example 238: Evaluation of antiviral activity of compounds against human coronavirus (HCov) 229E and OC43 in the cytopathic effect (CPE) assays
Compounds were assayed using standard methods against multiple coronaviral strains, including HCoV 229E and OC43 strains. The antiviral activity of compounds was calculated based on the protection of the virus-induced CPE at each concentration normalized by the virus control.
Cytopathic effect (CPE) was measured by CellTiter Glo following the manufacturer's manual. The antiviral activity of compounds was calculated based on the protection of the virus-induced CPE at each concentration normalized by the virus control.
Cell viability was measured with CellTiter Glo.
For orientation: Cytopathic effects are the visible damage that an infection or toxin causes in cultured cells.

The subject of experiment [3] is HCov OC43. As to the kind of experiment: HCoV OC43 cytopathic effect (CPE) assay, CellTiter Glo. Format: cell-based, human coronavirus (HCov) OC43.
Experiment [4] has as its target COVID-19 (nCoV-2019, SARS-CoV2) Mpro (Severe acute respiratory syndrome coronavirus 2, UniProt P0DTD1). Description: COVID-19 (nCoV-2019, SARS-CoV2) Mpro enzymatic assay. It is filed as biochemical. As to conditions: 25 nM Mpro, 25 μM substrate; read-out: COVID-19 Mpro IC50.
The mark [5] stands for this setting: Betacoronavirus 1, OC43, read-out: OC43 IC50 (uM) MEDIAN, median.

Molecules are shown by their SMILES. pEC50, pIC50: −log10 of the molar value. Where two headings read alike, the source gives them in different places.

Sequence of 229E Mpro (P0C6X1 2966-3267): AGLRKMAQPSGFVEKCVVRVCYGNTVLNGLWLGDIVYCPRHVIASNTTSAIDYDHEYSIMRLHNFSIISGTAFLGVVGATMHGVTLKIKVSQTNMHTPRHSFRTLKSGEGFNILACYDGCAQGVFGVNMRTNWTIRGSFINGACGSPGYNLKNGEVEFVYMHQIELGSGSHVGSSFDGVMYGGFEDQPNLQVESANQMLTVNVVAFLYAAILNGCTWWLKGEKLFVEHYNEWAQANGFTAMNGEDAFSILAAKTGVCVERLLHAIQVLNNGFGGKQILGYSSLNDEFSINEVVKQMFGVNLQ

Regarding `CN1CCN(C(=O)C(c2cccnc2)N(C(=O)[C@H]2CCCN2C#N)c2ccc(C(C)(C)C)cc2)CC1` (mixture of isomers) [Compound 967, (2R)—N-(4-(tert-butyl)phenyl)-1-cyano-N-(2-(4-methylpiperazin-1-yl)-2-oxo-1-(pyridin-3-yl)ethyl)pyrrolidine-2-carboxamide], the negative logarithm of the EC50 (pEC50) is > 5.70 in experiment [1] (229E Mpro EC50) and 5.00 to 5.70 in experiment [2] (unidentified human coronavirus). Besides, in experiment [3] (setting [5]), the concentration for half-maximal inhibition (IC50) fell in the range of 2 to 10 µM. In experiment [4], the pIC50 was 5.00 to 5.70.

Consider `CC(C)(C)c1ccc(N(C(=O)[C@H]2C[C@@H](Oc3ccccc3)CN2C#N)C(C(=O)NC2CCCCC2)c2cccnc2)cc1` (single isomer, unassigned) [307 Isomer 1], for which the pEC50 in experiment [1] (229E Mpro EC50) and in experiment [2] (unidentified human coronavirus) was > 5.70 in each case. The IC50 in experiment [3] (setting [5]) was < 2 µM. Further, in experiment [4], the pIC50 was > 5.70.

Turning to `CC(C)(C)c1ccc(N(C(=O)[C@H]2C[C@@H](O)CN2C#N)C(C(=O)NCCN2CCOCC2)c2cccnc2)cc1` (single isomer, unassigned) [587 Isomer 1], the pEC50 in experiment [1] (229E Mpro EC50) and in experiment [2] (unidentified human coronavirus) was > 5.70 in each case. Further, the IC50 in experiment [3] (setting [5]) is < 2 µM. The negative-log IC50 (pIC50) in experiment [4] was > 5.70.

Regarding `CC(C)(C)c1ccc(N(C(=O)[C@H]2C[C@@H](O)CN2C#N)C(C(=O)NCCN2CCOCC2)c2cccnc2)cc1` (single isomer, unassigned) [587 Isomer 2], the pEC50 in experiment [1] (read-out: 229E Mpro EC50) is > 5.70; in experiment [2], 5.00 to 5.70. The IC50 in experiment [3] (read-out: OC43 IC50 (uM) MEDIAN, median) was in the range of 2 to 10 µM. Also, the negative-log IC50 (pIC50) in experiment [4] was 5.00 to 5.70.

As to `CC(C)(C)c1ccc(N(C(=O)[C@H]2C[C@@H](O)CN2C#N)C(C(=O)NC2CCCC2)c2cccnc2)cc1` (single isomer, unassigned) [595 Isomer 1], the negative-log EC50 (pEC50) in experiment [1] (229E Mpro EC50) was > 5.70; in experiment [2] (unidentified human coronavirus) it was 5.00 to 5.70. For the same compound, in experiment [3] (setting [5]), the IC50 was 2 to 10 µM. The negative-log IC50 (pIC50) in experiment [4] is 5.00 to 5.70.

As to `CC(C)(C)c1ccc(N(C(=O)[C@H]2COCCN2C#N)C(C(=O)NC2CCCCC2)c2cccnc2)cc1` (single isomer, unassigned) [Compound 202 Isomer 1], the negative logarithm of the EC50 (pEC50) in experiment [1] (229E Mpro EC50) and in experiment [2] (unidentified human coronavirus) was > 5.70 throughout. In experiment [4], the pIC50 is > 5.70.

With `C[C@H]1CC[C@H](C(=O)N(c2ccc(C(C)(C)C)cc2)C(C(=O)NC2CCCCC2)c2cccnc2)N1C#N` (single isomer, unassigned) [Compound 247 Isomer 1], the negative-log EC50 (pEC50) in experiment [1] (229E Mpro EC50) and in experiment [2] (unidentified human coronavirus) was > 5.70 in each case. The pIC50 in experiment [4] was 5.00 to 5.70.

As to `CC(C)(C)c1ccc(N(C(=O)[C@H]2C[C@@H](O)CN2C#N)C(C(=O)NC2CCCCC2)c2cccnc2)cc1` (single isomer, unassigned) [Compound 254 Isomer 1], the negative logarithm of the EC50 (pEC50) in experiment [1] (read-out: 229E Mpro EC50) was > 5.70; in experiment [2], 5.00 to 5.70. Moreover, in experiment [4], the negative-log IC50 (pIC50) was 5.00 to 5.70.

With `CC(C)(C)c1ccc(N(C(=O)[C@H]2C[C@@H](O)CN2C#N)C(C(=O)NC2CCCCC2)c2cccnc2)cc1` (single isomer, unassigned) [Compound 254], the pEC50 in experiment [1] (229E Mpro EC50) and in experiment [2] (unidentified human coronavirus) was > 5.70 each time. In addition, in experiment [4], the pIC50 was > 5.70.

Take `CC(C)(C)c1ccc(N(C(=O)[C@H]2C[C@H](O)CN2C#N)C(C(=O)NC2CCCCC2)c2cccnc2)cc1` (single isomer, unassigned) [Compound 255 Isomer 1]: the negative-log EC50 (pEC50) in experiment [1] (229E Mpro EC50) is > 5.70; in experiment [2] (listed as 255 Isomer 1), 4.52 to 5.00. Moreover, in experiment [4], the pIC50 is 5.00 to 5.70.

Take `CC(C)(C)c1ccc(N(C(=O)[C@H]2C[C@H](O)CN2C#N)C(C(=O)NC2CCCCC2)c2cccnc2)cc1` (single isomer, unassigned) [Compound 255 Isomer 2]: the pEC50 in experiment [1] (read-out: 229E Mpro EC50) and in experiment [2] (listed as 255 Isomer 2) was > 5.70 throughout. In addition, in experiment [4], the pIC50 was > 5.70.

`CC(C)(C)c1ccc(N(C(=O)[C@H]2CCCN2C#N)C(C(=O)NC2CCCCC2)c2cccnc2)cc1` (single isomer, unassigned) [Compound 1248 Isomer 1]: the pEC50 in experiment [2] (unidentified human coronavirus) is > 5.70.

For the compound `CC(C)(C)c1ccc(N(C(=O)[C@H]2CCCN2C#N)C(C(=O)NC2CCCCC2)c2cccnc2)cc1` (single isomer, unassigned) [Compound 1248 Isomer 2], the pEC50 in experiment [2] was 5.00 to 5.70.

Turning to `CC1(C(=O)N(c2ccc(C(C)(C)C)cc2)C(C(=O)NC2CCCCC2)c2cccnc2)CN(C#N)C1` (stereo not drawn) [Compound 128, N-(4-tert-butylphenyl)-1-cyano-N-[2-(cyclohexylamino)-2-oxo-1-(3-pyridyl)ethyl]-3-methyl-azetidine-3-carboxamide], the pEC50 in experiment [1] (229E Mpro EC50) and in experiment [2] (unidentified human coronavirus) was 5.00 to 5.70 in each case. Further, the pIC50 in experiment [4] is 4.52 to 5.00.

Turning to `CC(C)(C)c1ccc(N(C(=O)[C@H]2CCC(C)(C)N2C#N)C(C(=O)NC2CCCCC2)c2cccnc2)cc1` (stereo partly drawn) [Compound 262, (2R)—N-(4-tert-butylphenyl)-1-cyano-N-[2-(cyclohexylamino)-2-oxo-1-(3-pyridyl)ethyl]-5,5-dimethyl-pyrrolidine-2-carboxamide], the negative logarithm of the EC50 (pEC50) in experiment [2] (unidentified human coronavirus) was > 5.70.

Regarding `CC(C)(C)c1ccc(N(C(=O)C2c3ccccc3CN2C#N)C(C(=O)NC2CCCCC2)c2cccnc2)cc1` (stereo not drawn) [Compound 371], in experiment [2] (unidentified human coronavirus), the pEC50 was > 5.70.

In experiment [2] (unidentified human coronavirus), `CC(C)(C)c1ccc(N(C(=O)[C@H]2CCCN2C#N)C(C(=O)NCCN2CCOCC2)c2cccnc2)cc1` (stereo partly drawn) [Compound 391, (2R)—N-(4-(tert-butyl)phenyl)-1-cyano-N-(2-((2-morpholinoethyl)amino)-2-oxo-1-(pyridin-3-yl)ethyl)pyrrolidine-2-carboxamide] showed a negative logarithm of the EC50 (pEC50) of 5.00 to 5.70.

Consider `COc1ccc(NC(=O)C(c2cccnc2)N(C(=O)[C@H]2CCCN2C#N)c2ccc(C(C)(C)C)cc2)cn1` (stereo partly drawn) [Compound 407, (2R)—N-(4-(tert-butyl)phenyl)-1-cyano-N-(2-((6-methoxypyridin-3-yl)amino)-2-oxo-1-(pyridin-3-yl)ethyl)pyrrolidine-2-carboxamide], for which, in experiment [2] (unidentified human coronavirus), the negative logarithm of the EC50 (pEC50) is > 5.70.

`CC(C)(C)c1ccc(N(C(=O)[C@H]2CCCN2C#N)C(C(=O)NC2CCCCC2)c2cncc(F)c2)cc1` (stereo partly drawn) [Compound 475, (2R)—N-(4-(tert-butyl)phenyl)-1-cyano-N-(2-(cyclohexylamino)-1-(5-fluoropyridin-3-yl)-2-oxoethyl)pyrrolidine-2-carboxamide]: the pEC50 in experiment [2] (unidentified human coronavirus) was > 5.70.

In experiment [2] (unidentified human coronavirus), `CC(C)(C)c1ccc(N(C(=O)C2CCC(F)(F)CN2C#N)C(C(=O)NC2CCCCC2)c2cccnc2)cc1` (stereo not drawn) [Compound 885] showed a pEC50 of 5.00 to 5.70.

For `CC(C)(C)c1ccc(N(C(=O)[C@H]2[C@H](F)CCN2C#N)C(C(=O)NC2CCCCC2)c2cccnc2)cc1` (stereo partly drawn) [Compound 910, (2S,3R)—N-(4-tert-butylphenyl)-1-cyano-N-[2-(cyclohexylamino)-2-oxo-1-(3-pyridyl)ethyl]-3-fluoro-pyrrolidine-2-carboxamide], in experiment [2] (unidentified human coronavirus), the negative-log EC50 (pEC50) is > 5.70.

As for `CC(C)(C)c1ccc(N(C(=O)[C@H]2CCCN2C#N)C(C(=O)N2CCOCC2)c2cccnc2)cc1` (stereo partly drawn) [Compound 959], the pEC50 in experiment [2] (unidentified human coronavirus) was 5.00 to 5.70.

Regarding `O=C(NC1CCCCC1)C(c1cnnc2ccccc12)N(C(=O)[C@H]1C[C@@H](O)CN1)c1ccc(S(F)(F)(F)(F)F)cc1` (stereo partly drawn) [Compound 988], the pEC50 in experiment [2] (unidentified human coronavirus) was > 5.70.

Turning to `COc1cncc(C(C(=O)NC2CCCCC2)N(C(=O)[C@H]2C[C@@H](O)CN2C#N)c2ccc(C(C)(C)C)cc2)c1` (stereo partly drawn) [Compound 992], the pEC50 in experiment [2] (unidentified human coronavirus) is 5.00 to 5.70.

Consider `CO[C@@H]1C[C@H](C(=O)N(c2ccc(S(F)(F)(F)(F)F)cc2)C(C(=O)N2CCNCC2)c2cccnc2)N(C#N)C1` (stereo partly drawn) [Compound 1149], for which the pEC50 in experiment [2] (unidentified human coronavirus) is > 5.70.

The pEC50 is the EC50 on a negative log10 scale, so that one unit is a factor of ten. The term IC50 denotes the concentration at which inhibition is half-maximal. By pIC50 is commonly meant −log10 of the IC50, conventionally taken in molar units.
